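How tested: cells in 96-well plates exposed to compound for 48 hours at five concentrations. GI50 = concentration required for 50% inhibition of growth. The concentration for full growth arrest is given as TGI.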
Assays:
Assay in all cases: growth of human tumour cells (NCI), 48 h
786-0 renal = tested on: 786-0 renal
A498 renal = tested on: A498 renal
A549 NSCLC = tested on: A549 NSCLC
ACHN renal = tested on: ACHN renal
BT-549 breast = tested on: BT-549 breast
CAKI-1 renal = tested on: CAKI-1 renal
CCRF-CEM leukemia = tested on: CCRF-CEM leukemia
COLO 205 colon = tested on: COLO 205 colon
DU-145 prostate = tested on: DU-145 prostate
EKVX NSCLC = tested on: EKVX NSCLC
HCC-2998 colon = tested on: HCC-2998 colon
HCT-116 colon = tested on: HCT-116 colon
HCT-15 colon = tested on: HCT-15 colon
HL-60(TB) leukemia = tested on: HL-60(TB) leukemia
HOP-62 NSCLC = tested on: HOP-62 NSCLC
HOP-92 NSCLC = tested on: HOP-92 NSCLC
HS 578T breast = tested on: HS 578T breast
HT29 colon = tested on: HT29 colon
IGROV1 ovarian = tested on: IGROV1 ovarian
K-562 leukemia = tested on: K-562 leukemia
KM12 colon = tested on: KM12 colon
LOX IMVI melanoma = tested on: LOX IMVI melanoma
M14 melanoma = tested on: M14 melanoma
MALME-3M melanoma = tested on: MALME-3M melanoma
MCF7 breast = tested on: MCF7 breast
MDA-MB-231 breast = tested on: MDA-MB-231 breast
MDA-MB-435 = tested on: MDA-MB-435
MOLT-4 leukemia = tested on: MOLT-4 leukemia

O=C1/C(=C/c2ccccc2Br)COc2ccc(O)c(O)c21
GI50 (786-0 renal): 1.55 µM | TGI (786-0 renal): 4.16 µM | GI50 (A498 renal): 1.97 µM | TGI (A498 renal): 3.69 µM | GI50 (A549 NSCLC): 2.17 µM | TGI (A549 NSCLC): 10.2 µM | GI50 (ACHN renal): 1.32 µM | TGI (ACHN renal): 3.09 µM | GI50 (BT-549 breast): 2.17 µM | TGI (BT-549 breast): 5.95 µM | GI50 (CAKI-1 renal): 1.31 µM | TGI (CAKI-1 renal): 2.74 µM | GI50 (CCRF-CEM leukemia): 0.311 µM | TGI (CCRF-CEM leukemia): 1.55 µM | GI50 (COLO 205 colon): 1.96 µM | TGI (COLO 205 colon): 3.95 µM | GI50 (DU-145 prostate): 1.49 µM | TGI (DU-145 prostate): 3.23 µM | GI50 (EKVX NSCLC): 2.09 µM | TGI (EKVX NSCLC): 5.23 µM | GI50 (HCC-2998 colon): 1.83 µM | TGI (HCC-2998 colon): 3.4 µM | GI50 (HCT-116 colon): 1.31 µM | TGI (HCT-116 colon): 2.78 µM | GI50 (HCT-15 colon): 0.557 µM | TGI (HCT-15 colon): 3.12 µM | GI50 (HL-60(TB) leukemia): 0.379 µM | TGI (HL-60(TB) leukemia): 2.78 µM | GI50 (HOP-62 NSCLC): 2.29 µM | TGI (HOP-62 NSCLC): 6.54 µM | GI50 (HOP-92 NSCLC): 2.71 µM | TGI (HOP-92 NSCLC): 9 µM | GI50 (HS 578T breast): 3.28 µM | TGI (HS 578T breast): 21.5 µM | GI50 (HT29 colon): 3.37 µM | TGI (HT29 colon): 10.4 µM | GI50 (IGROV1 ovarian): 0.742 µM | TGI (IGROV1 ovarian): 4.29 µM | GI50 (K-562 leukemia): 0.339 µM | TGI (K-562 leukemia): > 100 µM | GI50 (KM12 colon): 1.61 µM | TGI (KM12 colon): 4.78 µM | GI50 (LOX IMVI melanoma): 1.03 µM | TGI (LOX IMVI melanoma): 2.32 µM | GI50 (M14 melanoma): 1.53 µM | TGI (M14 melanoma): 4.06 µM | GI50 (MALME-3M melanoma): 1.28 µM | TGI (MALME-3M melanoma): 3.27 µM | GI50 (MCF7 breast): 0.583 µM | TGI (MCF7 breast): 6.02 µM | GI50 (MDA-MB-231 breast): 1.42 µM | TGI (MDA-MB-231 breast): 6.17 µM | GI50 (MDA-MB-435): 1.14 µM | TGI (MDA-MB-435): 4.91 µM | GI50 (MOLT-4 leukemia): 0.504 µM | TGI (MOLT-4 leukemia): 53.4 µM

Reference: PubChem BioAssay (NCI)
